According to publication PMC3463759 (Clinical cancer research : an official journal of the …, 2012):
“And” between values parts separate entries of the source, which are not always exact repeats. Equal entries are not always repeated. Where two headings read alike, the source gives them in different places.

Tests used:
solid tumors = details: single agent dasatinib; cited from earlier work
[1] = Phase I 3+3 dose escalation: DLT, MTD, recommended phase II dose
[2] = test system: recurrent or persistent ovarian cancer; details: single agent 100 mg daily; ref Personal communication, Dr. Russell J. Schilder; cited from earlier work
[3] = Pharmacokinetics of dasatinib in plasma; details: for AUC: 100 mg, AUC(TAU), TAU = 24 h
[4] = cited from earlier work
[5] = test system: advanced or recurrent epithelial ovarian, peritoneal, or tubal cancer; assay: Response
[6] = all patients (N=20), all cycles
[7] = cohort 1 (dasatinib 100 mg), n patients
[8] = cohort 2 (dasatinib 120 mg), n patients
[9] = cohort 3 (dasatinib 150 mg), n patients
[10] = dasatinib 100 mg qd + paclitaxel + carboplatin, N=6, all cycles, patients (%)
[11] = dasatinib 120 mg qd + paclitaxel + carboplatin, N=3, all cycles, patients (%)
[12] = paclitaxel and dasatinib, Cycle 2 Day 1, N=18
[13] = with paclitaxel (Cycle 2 Day 1) vs dasatinib alone (Cycle 1 Day 15)

Cc1nc(Nc2ncc(C(=O)Nc3c(C)cccc3Cl)s2)cc(N2CCN(CCO)CC2)n1 [dasatinib, N-(2-chloro-6-methyl-phenyl)-2-(6-(4-(2-hydroxyethyl)-piperazin-1-yl)-2-methylpyrimidin-4-ylamino)thiazole-5-carboxamide]
best clinical response: PRs (solid tumors): 1–5% | best clinical response: stable disease (solid tumors): 5–23% | dose modifications secondary to hematologic toxicity (46/95 dose modifications): 48% | patients reporting fatigue (any grade) (all patients): Ninety | fatigue grade 3 [6]: 10% | thrombocytopenia grade 3–4 [6]: 35% | patients requiring dose modifications (cohort 1 (dasatinib 100 mg)): 100% | urinary tract infection (cohort 1 (dasatinib 100 mg)): 1 | grade 1 hyponatremia (cohort 1 (dasatinib 100 mg), n): 1 | grade 1 sinus pain (cohort 1 (dasatinib 100 mg), n): 9 Pain toxicity also included the following: (1) grade 2 neuralgia (n=1), grade 1 sinus pain (n=1), and grade 1 throat pain (n=1) in cohort 1; and (2) grade 1 back pain (n=1) and grade 1 extremity pain (n=1) in cohort 2. | grade 1 throat pain (cohort 1 (dasatinib 100 mg), n): 9 Pain toxicity also included the following: (1) grade 2 neuralgia (n=1), grade 1 sinus pain (n=1), and grade 1 throat pain (n=1) in cohort 1; and (2) grade 1 back pain (n=1) and grade 1 extremity pain (n=1) in cohort 2. | grade 2 neuralgia (cohort 1 (dasatinib 100 mg), n): 9 Pain toxicity also included the following: (1) grade 2 neuralgia (n=1), grade 1 sinus pain (n=1), and grade 1 throat pain (n=1) in cohort 1; and (2) grade 1 back pain (n=1) and grade 1 extremity pain (n=1) in cohort 2. | pulmonary toxicity, grade 1 other unspecified etiology (cohort 1 (dasatinib 100 mg), n): 10 Pulmonary toxicity also included the following: (1) grade 1 other unspecified etiology (n=1) in cohort 1; and (2) grade 2 hypoxia (n=1 in cohort 2. | gastrointestinal toxicity, other unspecified etiologies, grade 1 [7]: 5 Gastrointestinal toxicity included other unspecified etiologies: (1) grade 1 (n=1) and grade 2 (n=1) in cohort 1; (2) grade 1 (n=1) in cohort 2; and (3) grade 1 (n=1) in cohort 3. | gastrointestinal toxicity, other unspecified etiologies, grade 2 [7]: 5 Gastrointestinal toxicity included other unspecified etiologies: (1) grade 1 (n=1) and grade 2 (n=1) in cohort 1; (2) grade 1 (n=1) in cohort 2; and (3) grade 1 (n=1) in cohort 3. | grade 1 dehydration [7]: 4 Gastrointestinal toxicity also included the following: (1) grade 1 dehydration (n=1) in cohort 1; (2) grade 1 distension (n=1), grade 1 xerostomia (n=1), grade 1 gastritis (n=1) in cohort 2; and (3) grade 1 xerostomia (n=1) in cohort 3. | grade 1 joint-function toxicity [7]: 1 Additional toxicities in cohort 1 included musculoskeletal toxicity characterized by grade 1 joint-function toxicity (n=1) and grade 1 muscular complaints (n=1). The grade 3 myalgia is reported under pain. | grade 1 muscular complaints [7]: 1 Additional toxicities in cohort 1 included musculoskeletal toxicity characterized by grade 1 joint-function toxicity (n=1) and grade 1 muscular complaints (n=1). The grade 3 myalgia is reported under pain. | cases of grade 1 somnolence/depressed level of consciousness (cohort 2 (dasatinib 120 mg)): 8 Neurologic toxicity included one case of grade 1 somnolence/depressed level of consciousness in cohort 2. | patients requiring dose modifications (cohort 2 (dasatinib 120 mg)): 67% | grade 1 back pain (cohort 2 (dasatinib 120 mg), n): 9 Pain toxicity also included the following: (1) grade 2 neuralgia (n=1), grade 1 sinus pain (n=1), and grade 1 throat pain (n=1) in cohort 1; and (2) grade 1 back pain (n=1) and grade 1 extremity pain (n=1) in cohort 2. | grade 1 extremity pain (cohort 2 (dasatinib 120 mg), n): 9 Pain toxicity also included the following: (1) grade 2 neuralgia (n=1), grade 1 sinus pain (n=1), and grade 1 throat pain (n=1) in cohort 1; and (2) grade 1 back pain (n=1) and grade 1 extremity pain (n=1) in cohort 2. | grade 1 hypokalemia (cohort 2 (dasatinib 120 mg), n): 1 | grade 1 hypomagnesemia (cohort 2 (dasatinib 120 mg), n): 1 | grade 2 hypoxia (cohort 2 (dasatinib 120 mg), n): 10 Pulmonary toxicity also included the following: (1) grade 1 other unspecified etiology (n=1) in cohort 1; and (2) grade 2 hypoxia (n=1 in cohort 2. | gastrointestinal toxicity, other unspecified etiologies, grade 1 [8]: 5 Gastrointestinal toxicity included other unspecified etiologies: (1) grade 1 (n=1) and grade 2 (n=1) in cohort 1; (2) grade 1 (n=1) in cohort 2; and (3) grade 1 (n=1) in cohort 3. | grade 1 distension [8]: 4 Gastrointestinal toxicity also included the following: (1) grade 1 dehydration (n=1) in cohort 1; (2) grade 1 distension (n=1), grade 1 xerostomia (n=1), grade 1 gastritis (n=1) in cohort 2; and (3) grade 1 xerostomia (n=1) in cohort 3. | grade 1 gastritis [8]: 4 Gastrointestinal toxicity also included the following: (1) grade 1 dehydration (n=1) in cohort 1; (2) grade 1 distension (n=1), grade 1 xerostomia (n=1), grade 1 gastritis (n=1) in cohort 2; and (3) grade 1 xerostomia (n=1) in cohort 3. | grade 1 xerostomia [8]: 4 Gastrointestinal toxicity also included the following: (1) grade 1 dehydration (n=1) in cohort 1; (2) grade 1 distension (n=1), grade 1 xerostomia (n=1), grade 1 gastritis (n=1) in cohort 2; and (3) grade 1 xerostomia (n=1) in cohort 3. | patients requiring dose modifications (cohort 3 (dasatinib 150 mg)): 91% | grade 1 elevated alkaline phosphatase (cohort 3 (dasatinib 150 mg), n): 7 Metabolic toxicities also included the following: grade 1 elevated transaminases (n=1), grade 1 elevated alkaline phosphatase (n=1), and proteinuria (grade 1 (n=1), grade 2 (n=1)) in cohort 3. | grade 1 elevated transaminases (cohort 3 (dasatinib 150 mg), n): 7 Metabolic toxicities also included the following: grade 1 elevated transaminases (n=1), grade 1 elevated alkaline phosphatase (n=1), and proteinuria (grade 1 (n=1), grade 2 (n=1)) in cohort 3. | grade 1 hyponatremia (cohort 3 (dasatinib 150 mg), n): 2 | grade 2 hypocalcemia (cohort 3 (dasatinib 150 mg), n): 1 | grade 3 hypercalcemia (cohort 3 (dasatinib 150 mg), n): 1 | hypokalemia grade 1 (cohort 3 (dasatinib 150 mg), n): 3 | hypokalemia grade 4 (cohort 3 (dasatinib 150 mg), n): 1 | hypomagnesemia grade 1 (cohort 3 (dasatinib 150 mg), n): 2 | hypomagnesemia grade 2 (cohort 3 (dasatinib 150 mg), n): 1 | hypophosphatemia grade 2 (cohort 3 (dasatinib 150 mg), n): 2 | hypophosphatemia grade 3 (cohort 3 (dasatinib 150 mg), n): 1 | proteinuria grade 1 (cohort 3 (dasatinib 150 mg), n): 7 Metabolic toxicities also included the following: grade 1 elevated transaminases (n=1), grade 1 elevated alkaline phosphatase (n=1), and proteinuria (grade 1 (n=1), grade 2 (n=1)) in cohort 3. | proteinuria grade 2 (cohort 3 (dasatinib 150 mg), n): 7 Metabolic toxicities also included the following: grade 1 elevated transaminases (n=1), grade 1 elevated alkaline phosphatase (n=1), and proteinuria (grade 1 (n=1), grade 2 (n=1)) in cohort 3. | gastrointestinal toxicity, other unspecified etiologies, grade 1 [9]: 5 Gastrointestinal toxicity included other unspecified etiologies: (1) grade 1 (n=1) and grade 2 (n=1) in cohort 1; (2) grade 1 (n=1) in cohort 2; and (3) grade 1 (n=1) in cohort 3. | grade 1 epitaxis [9]: 1 | grade 1 facial and neck edema [9]: 1 | grade 1 weight loss [9]: 2 | grade 1 xerostomia [9]: 4 Gastrointestinal toxicity also included the following: (1) grade 1 dehydration (n=1) in cohort 1; (2) grade 1 distension (n=1), grade 1 xerostomia (n=1), grade 1 gastritis (n=1) in cohort 2; and (3) grade 1 xerostomia (n=1) in cohort 3. | grade 3 hypotension [9]: 1 | Allergy, Grade 3 [10]: 1 (17) | Dermatogic: Alopecia, Grade 2 [10]: 6 (100) | Dermatogic: Pruritis, Grade 2 [10]: 1 (17) | Gastrointestinal: Anorexia, Grade 1 [10]: 2 (33) | Gastrointestinal: Mucositis/Stomatitis, Grade 1 [10]: 2 (33) | Neurologic: Ocular, Grade 1 [10]: 1 (17) | Pain: Joint, Grade 2 [10]: 2 (33) | Pain: Muscle, Grade 2 [10]: 1 (17) | Thrombocytopenia, Grade 1 [10]: 2 (33) | Thrombocytopenia, Grade 2 [10]: 1 (17) | Thrombocytopenia, Grade 3 [10]: 1 (17) | Thrombocytopenia, Grade 4 [10]: 1 (17) | fatigue grade 3 [10]: 2 (33) | Allergy, Grade 3 [11]: 1 (33) | Dermatogic: Alopecia, Grade 1 [11]: 1 (33) | Dermatogic: Alopecia, Grade 2 [11]: 2 (67) | Gastrointestinal: Anorexia, Grade 1 [11]: 3 (100) | Gastrointestinal: Mucositis/Stomatitis, Grade 1 [11]: 1 (33) | Neurologic: Ocular, Grade 1 [11]: 1 (33) | Pain: Joint, Grade 2 [11]: 1 (33) | Thrombocytopenia, Grade 3 [11]: 1 (33) | clinically-significant pleural effusions, ascites, or cardiac issues (in vivo): not observed | other infections (in vivo): Two | patient deaths during the treatment phase (in vivo): no patient deaths | reports of infection associated with febrile neutropenia (in vivo): one | DLT observed ([1]; dasatinib 120 mg daily, paclitaxel 175 mg/m2, carboplatin AUC 6): no DLTs | DLT observed ([1]; dasatinib 150 mg daily, paclitaxel 175 mg/m2, carboplatin AUC 6, first cycle): no DLTs | grade 4 neutropenia at 2 weeks ([1]; first three patients of the dasatinib 150 mg daily cohort): all three patients | predefined MTD ([1]; in combination with paclitaxel and carboplatin, doses up to 150 mg daily): not reached | Grade 3 and 4 neutropenia and thrombocytopenia [2]: not observed | cases of grade 3 anemia [2]: 1 | median PFS [2]: 2.1 months | responses [2]: no responses | T-HALF, Mean (SD) ([3]; dasatinib alone, Cycle 1 Day 15, N=14): 6.17 h and 6.17 (2.32) h | Tmax ([3]; human, plasma, oral): 2 h | AUC ([3]; human, plasma, oral, Geo Mean (%CV), dasatinib alone, Cycle 1 Day 15, N=14, dose-normalized to 100 mg): 478 ng·h/mL | AUC ([3]; human, plasma, oral, Geo Mean (%CV), paclitaxel and dasatinib, Cycle 2 Day 1, N=18, dose-normalized to 100 mg): 415 ng·h/mL | Cmax ([3]; human, plasma, oral, Cmax, Geo Mean (%CV), paclitaxel and dasatinib, Cycle 2 Day 1, N=18, dose-normalized to 100 mg): 78 ng/mL | inter-individual variability (%CV) for exposure ([3]; in vivo): 40–90% | T-HALF, Mean (SD) [3, 12]: 5.27 h and 5.27 (1.26) h | Tmax, Median (min, max) [3, 12]: 2.00 (0.50, 6.00) h | reduction of geometric mean AUC(0-T) [3, 13]: 11% | reduction of geometric mean AUC(TAU) [3, 13]: 13% | incidence of effusions ([4]; 140 mg daily): 9% | severe pericardial effusions [4]: 1% | severe pleural effusions [4]: 5% | grade 3 to 4 hematologic toxicity ([4]; patients with solid tumors): 3–6% | complete responses (CR) ([5]; 3/20): 15% | partial responses (PR) ([5]; 5/20): 25% | PFS6-month actuarial estimate ([5]; 95% confidence interval 69–100%): 86% | median OS ([5]; in vivo): 16.2 months | median PFS ([5]; in vivo): 7.8 months
